Assay results from patent publication US8247211B2, “Glycopeptide antibiotics” (American Cyanamid Company, priority 2001, dated 2012).
Converted amounts (≈) assume the structure as drawn.

Tests used:
Test in all cases: In vitro antibacterial evaluation: minimum inhibitory concentration (MIC), broth dilution method
Format in all cases: cell-based
[1] = tested on: Enterococcus sp.
In short: (§1)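 Using Muller-Hinton II […] and an inoculum of 5×10^5 CFU/mL, antibiotic dilutions from 64 down to 0.06 μg/mL were tested following NCCLS M7-A2. The MIC is the lowest concentration inhibiting growth, including in methicillin-, penicillin- or vancomycin-resistant clinical isolates.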

[2] = tested on: Escherichia coli
In short: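 First, organisms are seeded at 5×10^5 CFU/mL into Muller-Hinton II […]. Next, antibiotic is applied across 64-0.06 μg/mL by broth dilution (NCCLS M7-A2). Finally, the lowest inhibitory concentration is recorded as MIC.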

[3] = tested on: Staphylococcus sp.; conditions: broth dilution, 18 hours at 35° C.
In short: as §1

[4] = tested on: Streptococcus sp.
In short: as §1

## CCCc1ccc(C2OCC3OC(OC4C(CO)OC(Oc5ccc(CC6NC(=O)C(C(C)c7ccccc7)NC(=O)CNC(=O)C(CO)NC(=O)C(C(O)C7CNC(=N)N7C7OC(CO)C(O)C(O)C7O)NC(=O)C(C(O)C7CNC(=N)N7)NC6=O)cc5)C(O)C4O)C(O)C(O)C3O2)cc1 (stereo not drawn) [Example 140, Cyclo[glycyl-β-methylphenylalanyl-O-[4-O-[4,6-O-(4-propylbenzylidene)hexopyranosyl]-hexopyranosyl]tyrosyl-3-(2-iminoimidazolidin-4-yl)seryl-3-(3-hexopyranosyl-2-iminoimidazolidin-4-yl)serylseryl]]
[1]; strain ATCC 29212
  MIC Enterococcus faecalis (ATCC 29212): <0.5 µg/mL
[1]; strain GC 2242
  MIC Enterococcus faecalis (GC 2242): <1 µg/mL
[1]; strain GC 2243
  MIC Enterococcus faecium (GC 2243): 1 µg/mL (≈ 0.702 µM)
[1]; strain GC 2691
  MIC Enterococcus faecalis (GC 2691): 1 µg/mL (≈ 0.702 µM)
[1]; strain GC 3059
  MIC Enterococcus faecalis (GC 3059): 1 µg/mL (≈ 0.702 µM)
[1]; strain GC 4552
  MIC Enterococcus faecalis (GC 4552): 1 µg/mL (≈ 0.702 µM)
[1]; strain GC 4553
  MIC Enterococcus faecalis (GC 4553): 1 µg/mL (≈ 0.702 µM)
[1]; strain GC 4554
  MIC Enterococcus faecalis (GC 4554): 1 µg/mL (≈ 0.702 µM)
[1]; strain GC 4556
  MIC Enterococcus faecium (GC 4556): 1 µg/mL (≈ 0.702 µM)
[1]; strain GC 4557
  MIC Enterococcus faecium (GC 4557): 1 µg/mL (≈ 0.702 µM)
[1]; strain GC 4558
  MIC Enterococcus avium (GC 4558): 1 µg/mL (≈ 0.702 µM)
[1]; strain GC 6189
  MIC Enterococcus faecalis (GC 6189): 1 µg/mL (≈ 0.702 µM)
[2]; strain ATCC 25922
  MIC Escherichia coli (ATCC 25922): 64 µg/mL (≈ 44.9 µM)
[2]; strain GC 4559
  MIC Escherichia coli (GC 4559): 64 µg/mL (≈ 44.9 µM)
[2]; strain GC 4560
  MIC Escherichi coli (GC 4560): 1 µg/mL (≈ 0.702 µM)
[3]; 5×10^5 CFU/mL
  MIC Coagulase Negative Staphylococcus (GC 4547): <0.5 µg/mL
  MIC Coagulase Negative Staphylococcus (GC 4548): <0.5 µg/mL
  MIC Coagulase Negative Staphylococcus (GC 4549): <0.5 µg/mL
  MIC Coagulase Negative Staphylococcus (GC 4551): <0.5 µg/mL
  MIC Coagulase Negative Staphylococcus (GC 6257): <0.5 µg/mL
  MIC Staphylococcus aureus (ATCC 29213): 1 µg/mL (≈ 0.702 µM)
  MIC Staphylococcus aureus (GC 1131): 1 µg/mL (≈ 0.702 µM)
  MIC Staphylococcus aureus (GC 3051): 1 µg/mL (≈ 0.702 µM)
  MIC Staphylococcus aureus (GC 3053): <0.5 µg/mL
  MIC Staphylococcus aureus (GC 4541): 1 µg/mL (≈ 0.702 µM)
  MIC Staphylococcus aureus (GC 4542): 1 µg/mL (≈ 0.702 µM)
  MIC Staphylococcus aureus (GC 4544): 1 µg/mL (≈ 0.702 µM)
  MIC Staphylococcus aureus (GC 4545): <0.5 µg/mL
  MIC Staphylococcus aureus-SMITH (GC 4543): 1 µg/mL (≈ 0.702 µM)
  MIC Staphylococcus haemolyticus (GC 4546): 1 µg/mL (≈ 0.702 µM)
[3]; strain ATCC 29213
  MIC Staphylococcus aureus (ATCC 29213): 1 µg/mL (≈ 0.702 µM)
[3]; strain GC 1131
  MIC Staphylococcus aureus (GC 1131): 1 µg/mL (≈ 0.702 µM)
[3]; strain GC 3051
  MIC Staphylococcus aureus (GC 3051): 1 µg/mL (≈ 0.702 µM)
[3]; strain GC 3053
  MIC Staphylococcus aureus (GC 3053): <0.5 µg/mL
[3]; strain GC 4541
  MIC Staphylococcus aureus (GC 4541): 1 µg/mL (≈ 0.702 µM)
[3]; strain GC 4542
  MIC Staphylococcus aureus (GC 4542): 1 µg/mL (≈ 0.702 µM)
[3]; strain GC 4543
  MIC Staphylococcus aureus-SMITH (GC 4543): 1 µg/mL (≈ 0.702 µM)
[3]; strain GC 4544
  MIC Staphylococcus aureus (GC 4544): 1 µg/mL (≈ 0.702 µM)
[3]; strain GC 4545
  MIC Staphylococcus aureus (GC 4545): <0.5 µg/mL
[3]; strain GC 4546
  MIC Staphylococcus haemolyticus (GC 4546): 1 µg/mL (≈ 0.702 µM)
[3]; strain GC 4547
  MIC Coagulase Negative Staphylococcus (GC 4547): <0.5 µg/mL
[3]; strain GC 4548
  MIC Coagulase Negative Staphylococcus (GC 4548): <0.5 µg/mL
[3]; strain GC 4549
  MIC Coagulase Negative Staphylococcus (GC 4549): <0.5 µg/mL
[3]; strain GC 4551
  MIC Coagulase Negative Staphylococcus (GC 4551): <0.5 µg/mL
[3]; strain GC 6257
  MIC Coagulase Negative Staphylococcus (GC 6257): <0.5 µg/mL
[4]; strain ATCC 6301
  MIC Streptococcus pneumoniae (ATCC 6301): <0.5 µg/mL
[4]; strain GC 1894
  MIC Streptococcus pneumoniae (GC 1894): <0.5 µg/mL
[4]; strain GC 4563
  MIC Streptococcus pyogenes (GC 4563): <0.5 µg/mL
[4]; strain GC 4564
  MIC Streptococcus agalactiae (GC 4564): <0.5 µg/mL
[4]; strain GC 4565
  MIC Streptococcus pneumoniae (GC 4565): <0.5 µg/mL
